One may read the IC50 as the concentration at which inhibition is half-maximal. A higher IC50 goes with lower potency.

The test deals with T1, hGOAT (Homo sapiens, UniProt Q96T53).
T1 construct: expressed in transfected cells; host or cells: HEK293 (Hek293 hGOAT/PPGhrl Clone #1B8)
T1 sequence (Q96T53 1-435): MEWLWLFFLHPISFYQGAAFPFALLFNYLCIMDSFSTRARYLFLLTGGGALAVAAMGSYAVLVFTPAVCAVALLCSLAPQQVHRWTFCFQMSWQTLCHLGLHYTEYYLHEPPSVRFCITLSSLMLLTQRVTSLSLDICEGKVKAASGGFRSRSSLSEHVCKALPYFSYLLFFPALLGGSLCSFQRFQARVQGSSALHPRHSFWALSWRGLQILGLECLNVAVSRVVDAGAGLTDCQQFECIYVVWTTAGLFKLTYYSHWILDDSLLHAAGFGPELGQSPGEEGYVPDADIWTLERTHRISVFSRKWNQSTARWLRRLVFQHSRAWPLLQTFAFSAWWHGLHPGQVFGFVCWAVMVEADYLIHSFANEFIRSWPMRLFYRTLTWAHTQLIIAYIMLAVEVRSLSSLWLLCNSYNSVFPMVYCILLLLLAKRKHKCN
In words: Determination of hGOAT activity in HEK293 cells after incubation with test compound (acyl-ghrelin ELISA). The format is cell-based. As to conditions: HEK293 cells stably transfected with preproghrelin and human GOAT; octanoate-BSA 100 μM; 5 hours incubation; acyl-ghrelin in medium by ELISA; 8 compound concentrations.
In the case of `Cc1nc2nonc2c(N)c1Cc1ccc(-c2ccc(C#N)s2)nc1` [Compound 12.5, 5-[5-(7-Amino-5-methyl-[1,2,5]oxadiazolo[3,4-b]pyridin-6-ylmethyl)-pyridin-2-yl]-thiophene-2-carbonitrile], the IC50 turned out to be 3.66 nM.

The compound `Cc1nc2nonc2c(N)c1Cc1ccc(-c2c(C)noc2C)nc1` [Compound 12.6, 6-{[6-(3,5-Dimethyl-1,2-oxazol-4-yl)pyridin-3-yl]methyl}-5-methyl-[1,2,5]oxadiazolo[3,4-b]pyridin-7-amine] returned an IC50 of 0.402 nM.

Turning to `Cc1nc2nonc2c(N)c1Cc1ccc(-c2cn(C)nc2C(F)(F)F)nc1` [Compound 12.7, 5-Methyl-6-({6-[1-methyl-3-(trifluoromethyl)-1H-pyrazol-4-yl]pyridin-3-yl}methyl)-[1,2,5]oxadiazolo[3,4-b]pyridin-7-amine], it took 1.17 nM to reach half-maximal inhibition (IC50).

The compound `Cc1nc2nonc2c(N)c1Cc1ccc(-c2cncn2C)nc1` [Compound 12.8, 5-Methyl-6-{[6-(1-methyl-1H-imidazol-5-yl)pyridin-3-yl]methyl}-[1,2,5]oxadiazolo[3,4-b]pyridin-7-amine] displayed an IC50 of 0.531 nM.

As to `Cc1nc2nonc2c(N)c1Cc1ccc(-c2ccco2)nc1` [Compound 12.9, 6-{[6-(Furan-2-yl)pyridin-3-yl]methyl}-5-methyl-[1,2,5]oxadiazolo[3,4-b]pyridin-7-amine], the IC50 is 1.49 nM.

Consider `Cc1nc2nonc2c(N)c1Cc1ccc(-c2c[nH]nc2C(F)(F)F)nc1` [Compound 12.10, 5-Methyl-6-({6-[3-(trifluoromethyl)-1H-pyrazol-4-yl]pyridin-3-yl}methyl)-[1,2,5]oxadiazolo[3,4-b]pyridin-7-amine], for which the midpoint of inhibition, the IC50, lay at 0.437 nM.

In turn, `Cc1nc2nonc2c(N)c1Cc1ccc(-c2c(C)noc2C)n2cnnc12` [Compound 12.11, 6-{[5-(3,5-Dimethyl-1,2-oxazol-4-yl)-[1,2,4]triazolo[4,3-a]pyridin-8-yl]methyl}-5-methyl-[1,2,5]oxadiazolo[3,4-b]pyridin-7-amine] came in with an IC50 of 1.31 nM.

Turning to `Cc1nc2nonc2c(N)c1Cc1ccc(-c2ccsc2C#N)n2cnnc12` [Compound 12.12, 3-[8-({7-Amino-5-methyl-[1,2,5]oxadiazolo[3,4-b]pyridin-6-yl}methyl)-[1,2,4]triazolo[4,3-a]pyridin-5-yl]thiophene-2-carbonitrile], the IC50 was 1.25 nM.

Regarding `Cc1nc2nonc2c(N)c1Cc1ccc(-c2ccnn2C)n2cnnc12` [Compound 12.13, 5-Methyl-6-[5-(2-methyl-2H-pyrazol-3-yl)-[1,2,4]triazolo[4,3-a]pyridin-8-ylmethyl]-[1,2,5]oxadiazolo[3,4-b]pyridin-7-ylamine], the IC50 came out at 2.79 nM.

Compound `Cc1nc2nonc2c(N)c1Cc1cccc(N=S(C)(C)=O)c1` [Compound 13.1, {[3-({7-Amino-5-methyl-[1,2,5]oxadiazolo[3,4-b]pyridin-6-yl}methyl)phenyl]imino}dimethyl-λ^6-sulfanone] displayed an IC50 of 1.54 nM.

`Cc1nc2nonc2c(N)c1Cc1ccc(OC(F)(F)F)c(N=S(C)(C)=O)c1` [Compound 13.2, {[5-({7-Amino-5-methyl-[1,2,5]oxadiazolo[3,4-b]pyridin-6-yl}methyl)-2-(trifluoromethoxy)phenyl]imino}dimethyl-λ^6-sulfanone] showed an IC50 of 0.033 nM.

With `Cc1nc2nonc2c(N)c1Cc1ccc(C(N)=O)cc1` [Compound 14.1, 4-({7-Amino-5-methyl-[1,2,5]oxadiazolo[3,4-b]pyridin-6-yl}methyl)benzamide], the 50% inhibitory concentration (IC50) was 6.29 nM.

`Cc1nc2nonc2c(N)c1Cc1ccc(C(=O)N(C)C)cc1` [Compound 14.2, 4-({7-Amino-5-methyl-[1,2,5]oxadiazolo[3,4-b]pyridin-6-yl}methyl)-N,N-dimethylbenzamide] showed an IC50 of 0.665 nM.

As for `Cc1nc2nonc2c(N)c1Cc1ccc(C(=O)NCC2CN(C)CCO2)cc1` (stereo not drawn) [Compound 14.3, 4-({7-Amino-5-methyl-[1,2,5]oxadiazolo[3,4-b]pyridin-6-yl}methyl)-N-[(4-methylmorpholin-2-yl)methyl]benzamide], the midpoint of inhibition, the IC50, lay at 2.93 nM.

`Cc1nc2nonc2c(N)c1Cc1ccc(C(=O)NCc2ccn(C)n2)cc1` [Compound 14.4, 4-({7-Amino-5-methyl-[1,2,5]oxadiazolo[3,4-b]pyridin-6-yl}methyl)-N-[(1-methyl-1H-pyrazol-3-yl)methyl]benzamide] had an IC50 of 2.25 nM.

In turn, `Cc1nc2nonc2c(N)c1Cc1ccc(C(=O)NC2CCOCC2)cc1` [Compound 14.5, 4-({7-Amino-5-methyl-[1,2,5]oxadiazolo[3,4-b]pyridin-6-yl}methyl)-N-(oxan-4-yl)benzamide] came in with an IC50 of 2.37 nM.

As to `Cc1nc2nonc2c(N)c1Cc1ccc(C(=O)NC2(CO)CC2)cc1` [Compound 14.6, 4-({7-Amino-5-methyl-[1,2,5]oxadiazolo[3,4-b]pyridin-6-yl}methyl)-N-[1-(hydroxymethyl)cyclopropyl]benzamide], the midpoint of inhibition, the IC50, lay at 4.27 nM.

Compound `Cc1nc2nonc2c(N)c1Cc1ccc(C(=O)Nc2cn(C)nc2C(F)(F)F)cc1` [Compound 14.7, 4-({7-Amino-5-methyl-[1,2,5]oxadiazolo[3,4-b]pyridin-6-yl}methyl)-N-[1-methyl-3-(trifluoromethyl)-1H-pyrazol-4-yl]benzamide] had an IC50 of 1.83 nM.

The compound `Cc1nc2nonc2c(N)c1Cc1ccc(C(=O)NCc2cnccn2)cc1` [Compound 14.8, 4-({7-Amino-5-methyl-[1,2,5]oxadiazolo[3,4-b]pyridin-6-yl}methyl)-N-[(pyrazin-2-yl)methyl]benzamide] registered an IC50 of 3.64 nM.

Regarding `Cc1nc2nonc2c(N)c1Cc1ccc(C(=O)NC2CCN(C)C2=O)cc1` (stereo not drawn) [Compound 14.9, 4-({7-Amino-5-methyl-[1,2,5]oxadiazolo[3,4-b]pyridin-6-yl}methyl)-N-(1-methyl-2-oxopyrrolidin-3-yl)benzamide], the IC50 came out at 3.06 nM.

Take `Cc1nc2nonc2c(N)c1Cc1ccc(C(=O)NC(C)CO)cc1` (stereo not drawn) [Compound 14.10, 4-({7-amino-5-methyl-[1,2,5]oxadiazolo[3,4-b]pyridin-6-yl}methyl)-N-(1-hydroxypropan-2-yl)benzamide]: the IC50 came to 4.7 nM.

For `Cc1nc2nonc2c(N)c1Cc1ccc(C(=O)NCc2cnn(C)c2)cc1` [Compound 14.11, 4-({7-Amino-5-methyl-[1,2,5]oxadiazolo[3,4-b]pyridin-6-yl}methyl)-N-[(1-methyl-1H-pyrazol-4-yl)methyl]benzamide], inhibition was half-maximal at 4.16 nM (IC50).

The compound `Cc1nc2nonc2c(N)c1Cc1ccc(C(=O)NC2CCOC2)cc1` (stereo not drawn) [Compound 14.12, 4-({7-Amino-5-methyl-[1,2,5]oxadiazolo[3,4-b]pyridin-6-yl}methyl)-N-(oxolan-3-yl)benzamide] gave an IC50 of 3.02 nM.

Regarding `Cc1nc2nonc2c(N)c1Cc1ccc(C(=O)NCC2(C)COC2)cc1` [Compound 14.13, 4-({7-Amino-5-methyl-[1,2,5]oxadiazolo[3,4-b]pyridin-6-yl}methyl)-N-[(3-methyloxetan-3-yl)methyl]benzamide], the IC50 was found to be 4.99 nM.

Take `Cc1nc2nonc2c(N)c1Cc1ccc(C(=O)NCc2ccnnc2)cc1` [Compound 14.14, 4-({7-Amino-5-methyl-[1,2,5]oxadiazolo[3,4-b]pyridin-6-yl}methyl)-N-[(pyridazin-4-yl)methyl]benzamide]: the IC50 was 5.55 nM.

The compound `Cc1nc2nonc2c(N)c1Cc1ccc(C(=O)NCC(C)O)cc1` (stereo not drawn) [Compound 14.15, 4-({7-Amino-5-methyl-[1,2,5]oxadiazolo[3,4-b]pyridin-6-yl}methyl)-N-(2-hydroxypropyl)benzamide] displayed an IC50 of 5.12 nM.

With `Cc1nc2nonc2c(N)c1Cc1ccc(C(=O)NC(CO)C2CC2)cc1` (stereo not drawn) [Compound 14.16, 4-({7-Amino-5-methyl-[1,2,5]oxadiazolo[3,4-b]pyridin-6-yl}methyl)-N-(1-cyclopropyl-2-hydroxyethyl)benzamide], the midpoint of inhibition, the IC50, lay at 3.73 nM.

On to `Cc1nc2nonc2c(N)c1Cc1ccc(C(=O)Nc2ncnn2C)cc1` [Compound 14.17, 4-({7-Amino-5-methyl-[1,2,5]oxadiazolo[3,4-b]pyridin-6-yl}methyl)-N-(1-methyl-1H-1,2,4-triazol-5-yl)benzamide], for which the IC50 amounted to 4.5 nM.

As for `CNC(=O)c1ccc(Cc2c(C)nc3nonc3c2N)cc1` [Compound 14.18, 4-({7-Amino-5-methyl-[1,2,5]oxadiazolo[3,4-b]pyridin-6-yl}methyl)-N-methylbenzamide], the IC50 was 7.77 nM.

In the case of `Cc1nc2nonc2c(N)c1Cc1ccc(OC(F)(F)F)c(C(=O)N(C)C)c1` [Compound 15.1, 5-({7-Amino-5-methyl-[1,2,5]oxadiazolo[3,4-b]pyridin-6-yl}methyl)-N,N-dimethyl-2-(trifluoromethoxy)benzamide], the midpoint of inhibition, the IC50, lay at 0.183 nM.

In turn, `Cc1nc2nonc2c(N)c1Cc1ccc(OC(F)(F)F)c(C(N)=O)c1` [Compound 15.2, 5-({7-Amino-5-methyl-[1,2,5]oxadiazolo[3,4-b]pyridin-6-yl}methyl)-2-(trifluoromethoxy)benzamide] showed an IC50 of 0.096 nM.

`Cc1nc2nonc2c(N)c1Cc1ccc(Cl)c(C(N)=O)c1` [Compound 15.3, 5-({7-Amino-5-methyl-[1,2,5]oxadiazolo[3,4-b]pyridin-6-yl}methyl)-2-chlorobenzamide] came in with an IC50 of 1.58 nM.

`CNC(=O)c1cc(Cc2c(C)nc3nonc3c2N)ccc1Cl` [Compound 15.4, 5-({7-Amino-5-methyl-[1,2,5]oxadiazolo[3,4-b]pyridin-6-yl}methyl)-2-chloro-N-methylbenzamide] showed an IC50 of 0.933 nM.

Source of the values: US11254688B2 (Boehringer Ingelheim International GmbH, priority 2018, dated 2022).
